Laboratory results reported in patent US20140038953A1, “COMPOSITIONS AND METHODS FOR CARDIOVASCULAR DISEASE” (THE GENERAL HOSPITAL CORPORATION, priority 2011, published 2014).
Entries after “also recorded” stand apart in the source; their conditions may differ.

Experiments:
Format in all cases: in vivo
C57BL/6 mice = assay: Blood biochemical analysis in WT mice fed a high fat diet
Procedure: Female mice deficient for the low density lipoprotein receptor (LDLR^−/−) on a C57BL/6 background with appropriate control mice mice (eight weeks of age) were obtained from Jackson Laboratories (Bar Harbor, Me.). Animals were fed a western style diet formulated to match Paigen's Atherogenic Rodent Diet (42% fat, 0.15% cholesterol, 19.5% casein; Research Diets Inc., New Brunswick, N.J.).
[…], white blood count, hematocrit, hemoglobin, and platelets were analyzed using a HemaTrue™ Hematology Analyzer (Heska AG, Switzerland). Urea nitrogen, glucose, alkaline phosphatase, total protein, alanine transaminase and creatinine were determined using a Spotchem EZ SP-4430 POCT analyzer (Arkray, Inc., Kyoto, Japan). HDL and LDL levels were determined using a fluorescence quantification kit (K613-100, Biovision, Mountain View, Calif.)

[1] = tested on: phosphorylated SMADs 1/5/8; assay: p-SMAD1/5/8 immunofluorescence in atherosclerotic lesions of LDLR−/− mice
Source text: BMP signaling activity in the nascent lesions of LDLR^−/− mice was characterized. Phosphorylated BMP-responsive SMADs (p-SMAD1/5/8), effectors of the BMP signaling pathway that are retained in the nuclei of activated cells, were detected by immunofluorescence in endothelial cells, macrophages, and the media of atheromatous lesions (FIG. 1b), particularly in the lesser curvature of the aorta, beginning three weeks on HFD. Activation of BMP signaling persisted for at least 20 weeks and was abundant near calcific lesions (FIG. 3). To confirm that the activation of SMAD1/5/8 observed in the vessels of LDLR^−/− mice was attributable to BMP signaling, a BMP type I receptor inhibitor, compound 13, was administered (2.5 mg/kg ip daily for five days) to LDLR^−/− mice that had received HFD for 6 weeks.
For immunofluorescence, frozen sections were post-fixed in cold methanol and incubated with polyclonal antibodies specific for p-SMAD1/5/8 (1:100, Cell Signaling, Danvers, Mass.) or MAC2 (1:100, Cedarlane, Burlington, ON) followed by FITC labeled Goat Anti-Rabbit IgG or Rhodamine Goat Anti-Rat IgG (both Jackson Immuno Research, West Grove, Pa.), respectively.
LDLr−/− mice were started on a hypercholesterolemic diet at 8 weeks, and treated with either vehicle (saline) or a BMP inhibitor positive control compound (compound 13, 2.5 mg/kg/d intraperitoneally) for an additional 8 weeks. Aortae were harvested and fixed, and then stained with antibodies sensitive for the BMP effector molecule, phosphorylated-SMAD1/5/8, and counterstained with DAPI nuclear stain. Within 6-8 weeks of being subjected to a high fat diet, LDR−/− mice developed fatty lesions in the intima of the aortic root, based on traditional histochemical staining techniques (data not shown). […] Thus, the cellular components of lipid rich plaques, predominantly macrophage-derived foam cells, had evidence of intense activation of the BMP signaling pathway. […]

[2] = Body weight, food intake and bone mineral density in LDLR−/− mice; details: 2.5 mg/kg ip daily, vs vehicle
MGP−/− mice = assay: Survival of MGP−/− mice; details: 2.5 mg/kg/day IP from day 1, n=10 in each group
Procedure: MGP−/− mice were treated with either vehicle or the small molecule BMP type I receptor inhibitor compound 13 (2.5 mg/kg once daily IP) from day 1 to 28. Compound 13 is used as a BMP inhibitor positive control compound in these experiments. Whole aortas were harvested for phospho-Smad 1/5/8 (P-Smad) immunohistochemistry, a marker of BMP signaling, and for Alizarin Red staining of calcium. Osteogenic activity in aortas was visualized ex vivo by the uptake of a fluorescent bisphosphonate imaging probe. MGP−/− mice were also treated with vehicle or compound 13 to ascertain if inhibition of BMP signaling could impact survival, using Kaplan-Meier and Cox regression analysis.
Twenty MGP−/− mice were treated either with vehicle (n=10) or compound 13 (2.5 mg/kg/day IP, n=10) beginning at day 1 of life and followed for survival.

Wnt3a gene expression = assay: Aortic Wnt3a gene expression in MGP−/− mice; details: 2.5 mg/kg/day IP day 1-28
Procedure: Total cellular RNA from either snap frozen tissues or cultured cells was extracted by the Phenol/guanidine method as described. (Chomczynski, P. & Sacchi, N. Single-step method of RNA isolation by acid guanidinium thiocyanate-phenol-chloroform extraction. Anal Biochem 162, 156-159 (1987).) cDNA was synthesized using Moloney murine leukemia virus reverse transcriptase (Promega, Madison, Wis., USA).
MGP−/− mice were treated with intraperitoneal (IP) injections of either vehicle or compound 13 at 2.5 mg/kg/day from day 1-28. At day 28, aortas were harvested for both histology and RNA isolation. […] To further quantify aortic calcium, a fluorescent bisphosphonate agent that specifically binds to hydroxyapatite (OsteoSense 680 nm, Perkin Elmer) was used. (Aikawa E, et al. Multimodality molecular imaging identifies proteolytic and osteogenic activities in early aortic valve disease. Circulation. 2007; 115(3):377-386 and Zaheer A, et al. In vivo near-infrared fluorescence imaging of osteoblastic activity. Nature biotechnology. 2001; 19(12):1148-1154.) MGP−/− mice at 27 days of age treated with vehicle or compound 13 received OsteoSense via tail vein, and 24 h later, aortas were harvested for imaging. […]

[3] = female C57BL/6 WT mice, high fat diet 30 weeks, 2.5 mg/kg ip daily, mean ± SEM

c1ccc2c(-c3cnn4cc(-c5ccc(N6CCNCC6)cc5)cnc34)ccnc2c1 [Compound 13, 4-[6-(4-piperazin-1-ylphenyl)pyrazolo[1,5-a]pyrimidin-3-yl]quinoline]
Alanine transaminase (C57BL/6 mice; [3]): 159 ± 19 IU/L
Alkaline phosphatase (C57BL/6 mice; [3]): 109 ± 8 IU/L
Blood urea nitrogen (C57BL/6 mice; [3]): 25 ± 1 mg/dL
Cholesterol (C57BL/6 mice; [3]): 183 ± 6 mg/dL
Creatinine (C57BL/6 mice; [3]): 0.5 ± 0.0 mg/dL
Glucose (C57BL/6 mice; [3]): 311 ± 12 mg/dL
Hemoglobin (C57BL/6 mice; [3]): 13.5 ± 1.0 g/dL
Total protein (C57BL/6 mice; [3]): 4.7 ± 0.2 g/dL
Triglycerides (C57BL/6 mice; [3]): 82 ± 21 mg/dL
total serum cholesterol vs vehicle (C57BL/6 mice; wild-type animals on a HFD, in words): reduced total serum cholesterol
p-SMAD1/5/8 within atherosclerotic lesions ([1]; LDLR−/− mice on high fat diet 6 weeks, treated five days, compound 13 2.5 mg/kg ip daily, ALK3-Fc 2 mg/kg ip every other day): suppressed phosphorylation of SMADs 1/5/8; also recorded: markedly diminished the detection of p-SMAD1/5/8
p-SMAD1/5/8 staining in aorta ([1]; LDLR−/− mice treated during 6 weeks of high fat diet, compound 13 2.5 mg/kg ip daily, ALK3-Fc every other day, 2.5 mg/kg): decreased staining for phosphorylated SMAD1/5/8
phosphorylated-SMAD1/5/8 staining in atheroma ([1]; LDLr−/− mice, hypercholesterolemic diet and treatment 8 weeks, 2.5 mg/kg/d ip): greatly diminished
food intake per gram body weight ([2]; 6 weeks high fat diet, 2.5 mg/kg): did not differ significantly; also recorded: not associated with a reduction in body weight or food intake
body weight ([2]; 20 weeks high fat diet, 2.5 mg/kg): did not differ significantly; also recorded: not associated with a reduction in body weight or food intake
bone mineral density (femur, dual energy X-ray absorptiometry) ([2]; HFD 20 weeks): did not differ
Cox hazard ratio (survival) (MGP−/− mice): 0.04
survival compared to vehicle-treated controls (MGP−/− mice): improved survival
reduction in aortic Wnt3a gene expression (Wnt3a gene expression): > 5 fold
